Broadly, the IC50 is the concentration that inhibits the measured activity by half.

Calls of active or inactive are those of the source. No cut-off for these calls is given here.

The record followed here is ChEMBL document CHEMBL4811222, “Antitumor Activity of Asperphenin B by Induction of Apoptosis and Regulation of Glyceraldehyde-3-phosphate Dehydrogenase in Human Colorectal Cancer Cells” (J Nat Prod, 2021).

In one experiment the test system is LS174T. As to the kind of experiment: Antiproliferative activity against human LS174T cells assessed as inhibition of cell growth incubated for 72 hrs by SRB assay. It is filed as functional, cell-based. (The SRB assay estimates cell density from bound dye.)
The test system of a further experiment is HCT-116. As to the kind of experiment: Antiproliferative activity against human HCT-116 cells assessed as inhibition of cell growth incubated for 72 hrs by SRB assay. Type of experiment: functional, cell-based. The settings on record: HCT-116, 72 h.
Another experiment concerns SW480. The experiment is described as follows: Antiproliferative activity against human SW480 cells assessed as inhibition of cell growth incubated for 72 hrs by SRB assay. Type of experiment: functional, cell-based. The note with it: SW480, 72 h.
The test system of experiment [1] is RKO. As to the kind of experiment: Antitumor activity against human RKO cells implanted in BALB/c nude mouse assessed as suppression of Ki67 expression level in tumor lysates at 4 to 8 mg/kg, ip administered three times per week for 21 days by Western blotting analysis. It is filed as functional, organism-based. The settings on record: Neoplasm, dose 4-8 mg/kg, time 21.0 day. A general note: Immunoblotting shows a protein as a band on a membrane.

Experiment [2] has as its system RKO. As to the kind of experiment: Suppression of GAPDH protein expression in human RKO cells at 2.5 to 10 uM after 24 hrs by Western blotting analysis. Type of experiment: functional, cell-based. The note with it: dose 2.5-10 µM.
Experiment [3] deals with RKO. As to the kind of experiment: Antitumor activity against human RKO cells implanted in BALB/c nude mouse assessed as inhibition of tumor growth at 8 mg/kg, ip administered three times per week for 21 days and measured every 3 to 4 days by electronic caliper method. The settings on record: time 21.0 day. It is filed as functional.
A further experiment deals with CCD-18Co. As to the kind of experiment: Antiproliferative activity against human CCD-18Co cells assessed as inhibition of cell growth incubated for 72 hrs by SRB assay. It is filed as cell-based.
For the next experiment, the system named is CCD-841CoN. The experiment is described as follows: Antiproliferative activity against human CCD-841CoN cells assessed as inhibition of cell growth incubated for 72 hrs by SRB assay. It is filed as cell-based.
Experiment [4] has as its system RKO. As to the kind of experiment: Antiproliferative activity against human RKO cells assessed as inhibition of cell growth incubated for 72 hrs by SRB assay. It is filed as functional, cell-based.
Experiment [5] has as its system RKO. As to the kind of experiment: Antitumor activity against human RKO cells implanted in BALB/c nude mouse assessed as inhibition of tumor growth at 4 mg/kg, ip administered three times per week for 21 days and measured every 3 to 4 days by electronic caliper method. The settings on record: time 21.0 day. It is filed as functional.
The test system of experiment [6] is RKO. The experiment is described as follows: Antitumor activity against human RKO cells implanted in ip dosed BALB/c nude mouse assessed as suppression of GAPDH expression in tumor lysates administered three times per week for 21 days by Western blotting analysis. It is filed as functional, organism-based. The note with it: Neoplasm, time 21.0 day.

For the compound `CCCCCCCCC[C@@H](O)CC(=O)N[C@@H](CC(N)=O)C(=O)N[C@@H](CCC(N)=O)C(=O)N[C@@H](CC(C)C)C1=C(c2c(O)cccc2O)c2c(O)cc(C)cc2C1=O`, the IC50 with LS174T, with HCT-116, in the experiment on SW480, with CCD-18Co, in the experiment with CCD-841CoN and in the experiment with RKO [4] was greater than 50 µM throughout. Further, the outcome in the experiment with RKO [1], in the experiment with RKO [2] and in the experiment with RKO [6] was inactive. In addition, the TGI entry in the experiment on RKO [3] and with RKO [5] was “inactive” each time.
Regarding `COc1cc([C@@H]2c3cc4c(cc3[C@@H](O[C@@H]3O[C@@H]5CO[C@@H](C)O[C@H]5[C@H](O)[C@H]3O)[C@H]3COC(=O)[C@H]23)OCO4)cc(OC)c1O` [ETOPOSIDE], the half-maximal inhibitory concentration (IC50) is 0.48 µM in the experiment with LS174T; 0.66 µM with HCT-116; 1.11 µM with SW480; 18.4 µM in the experiment on CCD-18Co; 8.71 µM with CCD-841CoN; 1.96 µM in the experiment on RKO [4].
